Source: paper PMC3380172 (Journal of the American Chemical Society, 2012)
Read-outs that look alike come from different tables or passages of the source.

How the values were obtained:
[1] = target: T1, I172A mutant TbbTIM (Trypanosoma brucei brucei, UniProt P04789, I172A); test: TIM-catalyzed isomerization of DHAP and arsenate inhibition; format: biochemical; settings: 30 mM TEA, pH 7.5, 25 °C, I = 0.1 (NaCl)
[2] = target: T2, I172V mutant TbbTIM (Trypanosoma brucei brucei, UniProt P04789, I172V); test: as above; format: biochemical; settings: 30 mM TEA, pH 7.5, 25 °C, I = 0.1 (NaCl)
[3] = target: T3, L232A mutant TbbTIM (Trypanosoma brucei brucei, UniProt P04789, L232A); format: biochemical; settings: for Fractional Product Yield fE: fraction of the three TIM-catalyzed products, 5 mM GAP, 3.4 nM L232A, D2O
[4] = target: T1, I172A mutant TbbTIM; format: biochemical; settings: for Fractional Product Yield fE: fraction of the three TIM-catalyzed products, 5 mM GAP, 65 nM I172A, D2O
[5] = test system: wildtype TbbTIM; settings: cited from earlier work
[6] = target: T3, L232A mutant TbbTIM; settings: 30 mM TEA, pH 7.5, 25 °C, I = 0.1 (NaCl), cited from earlier work
[7] = test system: WT chicken TIM; settings: cited from earlier work
[8] = test system: E165D chicken TIM; settings: cited from earlier work
[9] = test system: E165D/S96P chicken TIM; settings: cited from earlier work
[10] = target: T3, L232A mutant TbbTIM; test: Reaction of [1-13C]-GA in D2O with and without phosphite dianion, 1H NMR; format: biochemical; settings: for Average product yield (mole fraction), phosphite dianion-activated reaction: 20 mM [1-13C]-GA, D2O, pD 7.0, I = 0.1, 25 °C, average over [HPO3^2-]
[11] = target: T2, I172V mutant TbbTIM; test: as above; format: biochemical; settings: for Average product yield (mole fraction), phosphite dianion-activated reaction / Fractional yield from reaction at the enzyme active site: 20 mM [1-13C]-GA, D2O; for Average product yield (mole fraction), phosphite dianion-activated reaction: pD 7.0, I = 0.1, 25 °C, average over [HPO3^2-]; for Fractional yield from reaction at the enzyme active site: value in parenthesis, [HPO3^2-] 0 mM, pD 7.0, 25 °C
[12] = target: T1, I172A mutant TbbTIM; test: as above; format: biochemical; settings: for Average product yield (mole fraction), phosphite dianion-activated reaction: 20 mM [1-13C]-GA, D2O, pD 7.0, I = 0.1, 25 °C, average over [HPO3^2-]
[13] = target: T1, I172A mutant TbbTIM; test: TIM-catalyzed isomerization of GAP; format: biochemical; settings: 30 mM TEA, pH 7.5, 25 °C, I = 0.1 (NaCl)
[14] = target: T2, I172V mutant TbbTIM; test: TIM-catalyzed isomerization of GAP; format: biochemical; settings: 30 mM TEA, pH 7.5, 25 °C, I = 0.1 (NaCl)
[15] = test system: wildtype TbbTIM; format: biochemical, Trypanosoma brucei brucei; settings: reaction of GAP in D2O, pD 7.9, 25 °C; from product yields
[16] = test system: wildtype TbbTIM; settings: 30 mM TEA, pH 7.5, 25 °C, I = 0.1 (NaCl), cited from earlier work
[17] = target: T3, L232A mutant TbbTIM; settings: 30 mM TEA, pH 7.5, 25 °C, I = 0.1 (NaCl), cited from earlier work; remark: listed apart in the source
[18] = test system: WT chicken TIM; settings: cited from earlier work; remark: listed apart in the source
[19] = test system: E165D chicken TIM; settings: cited from earlier work; remark: listed apart in the source
[20] = test system: E165D/S96P chicken TIM; settings: cited from earlier work; remark: listed apart in the source
[21] = isomerization of GAP in D2O with intramolecular transfer of hydrogen
[22] = isomerization of [1-13C]-GA in D2O
[23] = unactivated reaction of [1-13C]-GA in D2O (no HPO3^2-)
[24] = reaction of GAP in D2O, pD 7.9, 25 °C, from product yields
[25] = read-out: Ki (arsenate), inhibition of DHAP isomerization

## O=C(CO)COP(=O)(O)O [DHAP, dihydroxyacetone phosphate]
[1]
  kcat (DHAP): 17 s⁻¹
[1]; read-out: Km (DHAP)
  Km: 3700 µM
[2]
  kcat (DHAP): 65 s⁻¹
[2]; read-out: Km (DHAP)
  Km: 200 µM
[3]; pD 7.9, 25 °C
  Fractional Product Yield fE: 0.041
[3]; [21]
  yield of product: 4%
[4]; pD 7.9, 25 °C
  Fractional Product Yield fE: 0.13
[4]; [21]
  yield of product: 13%
[5]; 30 mM TEA, pH 7.5, 25 °C, I = 0.1 (NaCl)
  kcat (DHAP): 300 s⁻¹
[5]; read-out: Km (DHAP), 30 mM TEA, pH 7.5, 25 °C, I = 0.1 (NaCl)
  Km: 700 µM
[6]
  kcat (DHAP): 4.7 s⁻¹
[6]; read-out: Km (DHAP)
  Km: 77 µM
[7]
  kcat (DHAP): 600 s⁻¹
[7]; read-out: Km (DHAP)
  Km: 650 µM
[8]
  kcat (DHAP): 4.1 s⁻¹
[8]; read-out: Km (DHAP)
  Km: 1200 µM
[9]
  kcat (DHAP): 3.4 s⁻¹
[9]; read-out: Km (DHAP)
  Km: 53 µM

## O=C[13CH2]O [[2-^13C]-GA]
[10]
  Average product yield (mole fraction), phosphite dianion-activated reaction: 0.01 ± 0.001
[10]; [22]
  yield of product: 1%
[11]
  Average product yield (mole fraction), phosphite dianion-activated reaction: 0.13 ± 0.01
  Fractional yield from reaction at the enzyme active site: 0.04
[12]
  Average product yield (mole fraction), phosphite dianion-activated reaction: 0.02 ± 0.001
[12]; [22]
  yield of product: 2%

## [2H]C([2H])(O)[13CH]=O [[1-^13C, 2,2-di-^2H]-GA]
[11]; reaction of [1-13C]-GA in D2O in the absence of HPO3^2-
  yield of product: 25%
[12]; [23]
  yield of product: 38%

## O=C[C@H](O)COP(=O)(O)O [GAP, R-glyceraldehyde 3-phosphate]
[13]
  kcat (GAP): 12 s⁻¹
[13]; read-out: Km (GAP)
  Km: 150 µM
[14]
  kcat (GAP): 225 s⁻¹
[14]; read-out: Km (GAP)
  Km: 58 µM
[3]; [24]
  Rate Constant Ratio (kC1)D/(kC2)D: 8.8
  Rate Constant Ratio kex/(kC1)H: 23
[4]; [24]
  Rate Constant Ratio (kC1)D/(kC2)D: 0.74
  Rate Constant Ratio kex/(kC1)H: 6.7
[15]
  Rate Constant Ratio (kC1)D/(kC2)D: 1.7
  Rate Constant Ratio kex/(kC1)H: 1.5
[16]
  kcat (GAP): 2100 s⁻¹
[16]; read-out: Km (GAP)
  Km: 250 µM
[17]
  kcat (GAP): 220 s⁻¹
[17]; read-out: Km (GAP)
  Km: 140 µM
[18]
  kcat (GAP): 8300 s⁻¹
[18]; read-out: Km (GAP)
  Km: 420 µM
[19]
  kcat (GAP): 4.2 s⁻¹
[19]; read-out: Km (GAP)
  Km: 78 µM
[20]
  kcat (GAP): 68 s⁻¹
[20]; read-out: Km (GAP)
  Km: 66 µM

## [2H][13CH](O)C=O (stereo not drawn) [[2-^13C, 2-^2H]-GA]
[10]
  Average product yield (mole fraction), phosphite dianion-activated reaction: 0.48 ± 0.02
[11]
  Average product yield (mole fraction), phosphite dianion-activated reaction: 0.63 ± 0.01
  Fractional yield from reaction at the enzyme active site: 0.40
[12]
  Average product yield (mole fraction), phosphite dianion-activated reaction: 0.25 ± 0.02

## O=C[C@H](O)COP(=O)(O)O [d-GAP]
[3]; pD 7.9, 25 °C
  Fractional Product Yield fE: 0.098
[4]; pD 7.9, 25 °C
  Fractional Product Yield fE: 0.50

## [2H]C(O)[13CH]=O (stereo not drawn) [[1-^13C, 2-^2H]-GA]
[10]
  Average product yield (mole fraction), phosphite dianion-activated reaction: 0.51 ± 0.02
[11]
  Average product yield (mole fraction), phosphite dianion-activated reaction: 0.24 ± 0.02
  Fractional yield from reaction at the enzyme active site: 0.55
[12]
  Average product yield (mole fraction), phosphite dianion-activated reaction: 0.30 ± 0.02
[12]; [23]
  yield of product: 15%

## O=[As](O)(O)O [arsenate, arsenate dianion, reference compound]
[5]; read-out: Ki (competitive inhibitor), arsenate dianion, competitive
  Ki: 4.6 mM
[7]; [25]
  Ki: 11 mM
[8]; [25]
  Ki: 12 mM
[9]; [25]
  Ki: 2.1 mM

## [2H]C(O)C(=O)COP(=O)(O)O (stereo not drawn) [d-DHAP]
[3]; pD 7.9, 25 °C
  Fractional Product Yield fE: 0.86
[4]; pD 7.9, 25 °C
  Fractional Product Yield fE: 0.37
